In patent US7976241B2, “Soil remediation method and composition” (priority 2006, dated 2011):

What was measured:
[1] = cited from earlier work
[2] = Chlorinated DNAPL dissolution in control sample without cosolvent-surfactant; format: physicochemical; details: in presence of DNAPL, no Citrus Burst-3, 50 g/L NaCl, 25° C., 48 hours
Source text: A chlorinated solvent DNAPL was obtained from a site consisting of chlorinated solvents and chlorinated semi-volatile compounds. Composition of the chlorinated solvent DNAPL is presented based on determinations using USEPA Methods 8260 and 8270. An aliquot of the DNAPL was mixed with a suitable quantity of deionized water to determine the equilibrium solubility of the individual compounds in the presence of the DNAPL.
The data collected under the experimentation conditions presented in Table 2 were obtained at 25° C. with 60 rpm shaker table mixing for 48 hours. After the shaker was shut off, the samples sat quietly for 5 minutes before the supernatant was analyzed. DNAPLmax represents the maximum concentration of DNAPL that may dissolve, given the mass of DNAPL and the volume of water.
Carbon tetrachloride and tetrachloroethylene comprised more than 87 percent of the DNAPL. Being a saturated compound, carbon tetrachloride is generally a pervasive and difficult to degrade compound once introduced to the subsurface. […] After 48 hours of slowly mixing the DNAPL and water mixtures, the samples were allowed to sit for 5 minutes and then samples of the solubilized fraction of the mixture were collected and analyzed for VOCs using USEPA Method 8260. Samples from experiment number 1, 3, 5, 7 and 8 (control) were analyzed. […]

| Structure (SMILES) | Pure Compound Aqueous Solubility [1] | Observed Solubility in Control Sample [2] [µg/mL] |
| --- | --- | --- |
| ClC(Cl)(Cl)Cl [Carbon Tetrachloride (CTC), Carbon Tetrachloride] | 129 µg/mL | 100 |
| Clc1c(Cl)c(Cl)c2c(Cl)c(Cl)c(Cl)c(Cl)c2c1Cl [Octachloronaphthalene (OCN), Octachloronaphthalene] | insoluble | – |
